# What was measured:
# [1] = test system: TGF-beta 1 stimulated SBE-bla HEK 293T; experiment: GeneBLAzer beta-lactamase (bla) reporter, TGF-beta 1 stimulated SBE-bla HEK 293T cell-based assay (ThermoFisher SelectScreen); conditions: Homo sapiens; SBE-bla HEK 293T cells; 30 minutes pre-incubation with inhibitor; TGF-beta 1 0.03 nM, 5 hours; inhibitor 10,000nM to 0.316nM; read-out: Cells (SBE_HEK293T) IC50
# Description: (§1) Table 2, below, describes the results of assays carried out on some compounds provided by the present disclosure. Exemplified compounds are confirmed to inhibit ALK5 activity in enzyme and cellular assays in the following assay systems conducted by ThermoFisher in Madison, WI according to their commercially available protocols.
# ThermoFisher SelectScreen™ Cell-based Pathway Profiling Service GeneBLAzer Beta-lactamase (bla) Reporter Technology - TGF-beta 1 stimulated SBE-bla HEK 293T Cell-based Assay
# SBE-bla HEK 293T cells are thawed and re-suspended in Assay Media (OPTI-MEM, 0.5% dialyzed FBS, 0.1 mM NEAA, 1 mM Sodium Pyruvate, 100 U/mL/100 µg/mL Pen/Strep) to a concentration of 625,000 cells/mL. 32 µL of cell suspension (20,000 cells) is added to each well of a 384-well Poly-D-Lysine assay plate. Cells in Assay Media are incubated for 16-24 hours in the plate at 37°C/5% CO2 in a humidified incubator. 4 µL of a 10X serial dilution of ALK5 inhibitors (10x = 100,000-3.16 nM) is added to appropriate wells of the plate and pre-incubated at 37°C/5% CO2 in a humidified incubator with cells for 30 minutes. Final concentration of inhibitor ranged from 10,000nM to 0.316nM. 4 µL of 10X TGF-beta 1 (final concentration of 0.03 nM) is added to wells containing the inhibitors. The plate is incubated for 5 hours at 37°C/5% CO2 in a humidified incubator. 8 µL of 1 µM Substrate Loading Solution is added to each well and the plate is incubated for 2 hours at room temperature before being read on a fluorescence plate reader. Percent inhibition is determined compared to DMSO only control (maximal TGF-beta 1 stimulation) and sigmoidal dose response curve fit yielded IC50 values as indicated in Table 2. TABLE 2: Biological activity assay results
# [2] = target: T1, TGFBR1 (ALK5) (Homo sapiens, UniProt P36897); experiment: LanthaScreen Eu Kinase Binding Assay TGFBR1 (ALK5) (ThermoFisher SelectScreen); conditions: ALK5 5 nM, Tracer #178 5 nM, Eu-anti-GST antibody 2 nM, 1 hour at room temperature, 1% DMSO; read-out: TβRI (ALK5) Binding IC50
# T1 sequence (P36897 34-503): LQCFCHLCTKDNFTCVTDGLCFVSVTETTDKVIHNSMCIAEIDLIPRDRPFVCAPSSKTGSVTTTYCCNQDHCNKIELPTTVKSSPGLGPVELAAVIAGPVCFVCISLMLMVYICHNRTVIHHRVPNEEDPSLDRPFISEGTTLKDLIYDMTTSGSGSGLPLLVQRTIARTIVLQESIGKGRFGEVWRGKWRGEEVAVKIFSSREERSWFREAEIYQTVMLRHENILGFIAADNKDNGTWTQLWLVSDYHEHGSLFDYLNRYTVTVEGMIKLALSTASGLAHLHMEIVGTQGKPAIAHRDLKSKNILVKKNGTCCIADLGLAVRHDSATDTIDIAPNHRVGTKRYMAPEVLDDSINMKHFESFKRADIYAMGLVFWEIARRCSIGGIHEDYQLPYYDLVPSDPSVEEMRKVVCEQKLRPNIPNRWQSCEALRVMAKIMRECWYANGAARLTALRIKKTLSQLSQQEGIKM
# Description: as §1
# ThermoFisher SelectScreen™ Biochemical Kinase Profiling Service, LanthaScreen™Eu Kinase Binding Assay TGFBR1 (ALK5)
# Exemplified compounds are screened in 1% DMSO (final concentration) by 3-fold serial dilutions from 10,000 nM to 0.316 nM or at single concentrations of 10,000, 1000 and 100 nM according to the following protocol. To low volume, white 384-well plates (Greiner Cat#784207) add 160 nL 100x compound in 100% DMSO, 3.84 uL kinase buffer (50 mM HEPES, pH 7.5, 0.01% BRIJ-35, 10 mM MgCl2, 1 mM EGTA), 8 uL 2x kinase/antibody mixture in kinase buffer (final ALK5 concentration of 5 nM; final Eu-anti-GST antibody concentration of 2 nM), 4 uL 4x Tracer #178 in kinase buffer (final concentration of 5 nM). Gently shake the plates for 30 seconds and incubate at room temperature for 1 hour before reading fluorescence on a plate reader. Percent inhibition is determined compared to DMSO only control (maximal ALK5 tracer binding) and sigmoidal dose response curve fit yielded IC50 values as indicated in Table 2.
SMILES,IC50 [1] [µM],IC50 [2] [µM]
"CC(C)n1ccc(-c2nc3n(c2-c2ccc4ncc(C(N)=O)n4c2)CCC3)n1 [Compound 7, 5-{3-(1-Isopropyl-1H-pyrazol-3-yl)-1,4-diazabicyclo[3.3.0]octa-2,4-dien-2-yl}-1,3a-diaza-3-indenecarboxamide]",0.248,0.0055
"NC(=O)c1cnc2ccc(-c3c(-c4ccn(C5CC5)n4)nc4n3CCC4)cn12 [Compound 8, 5-{3-(1-Cyclopropyl-1H-pyrazol-3-yl)-1,4-diazabicyclo[3.3.0]octa-2,4-dien-2-yl}-1,3a-diaza-3-indenecarboxamide]",0.084,0.0033
"Oc1ncnc2ccc(-c3c(-c4ccn(C5CC5)n4)nc4n3CCC4)cc12 [Compound 16, 6-{3-(1-Cyclopropyl-1H-pyrazol-3-yl)-1,4-diazabicyclo[3.3.0]octa-2,4-dien-2-yl}-3H-quinazolin-4-one]",0.117,0.0026
"Cn1cnc2ccc(-c3c(-c4ccn(C5CC5)n4)nc4n3CCC4)cc2c1=O [Compound 18, 6-{3-(1-Cyclopropyl-1H-pyrazol-3-yl)-1,4-diazabicyclo[3.3.0]octa-2,4-dien-2-yl}-3-methyl-3H-quinazolin-4-one]",0.069,0.0067
"Cn1cnc2ccc(-c3c(-c4ccn(C5CC5)n4)nc4n3CCN4)cc2c1=O [Compound 22, 6-{3-(1-Cyclopropyl-1H-pyrazol-3-yl)-1,4,6-triazabicyclo[3.3.0]octa-2,4-dien-2-yl}-3-methyl-3H-quinazolin-4-one]",0.0274,0.0072
"CC(C)n1ccc(-c2nc3occn3c2-c2ccc3nc[nH]c(=O)c3c2)n1 [Compound 23, 6-{7-(1-Isopropyl-1H-pyrazol-3-yl)-4-oxa-1,6-diazabicyclo[3.3.0]octa-2,5,7-trien-8-yl}-3H-quinazolin-4-one]",0.239,0.0052
"O=c1[nH]cnc2ccc(-c3c(-c4ccn(C5CC5)n4)nc4occn34)cc12 [Compound 24, 6-{7-(1-Cyclopropyl-1H-pyrazol-3-yl)-4-oxa-1,6-diazabicyclo[3.3.0]octa-2,5,7-trien-8-yl}-3H-quinazolin-4-one]",0.037,0.0018
"CC(C)n1ccc(-c2nc3occn3c2-c2ccc3ncn(C)c(=O)c3c2)n1 [Compound 25, 6-{7-(1-Isopropyl-1H-pyrazol-3-yl)-4-oxa-1,6-diazabicyclo[3.3.0]octa-2,5,7-trien-8-yl}-3-methyl-3H-quinazolin-4-one]",0.238,0.0072
"Cn1cnc2ccc(-c3c(-c4ccn(C5CC5)n4)nc4occn34)cc2c1=O [Compound 26, 6-{7-(1-Cyclopropyl-1H-pyrazol-3-yl)-4-oxa-1,6-diazabicyclo[3.3.0]octa-2,5,7-trien-8-yl}-3-methyl-3H-quinazolin-4-one]",0.0338,0.0031
"O=c1c2cc(-c3c(-c4ccn(C5CC5)n4)nc4n3CCC4)ccc2ncn1CCN1CCOCC1 [Compound 28, 6-{3-(1-Cyclopropyl-1H-pyrazol-3-yl)-1,4-diazabicyclo[3.3.0]octa-2,4-dien-2-yl}-3-(2-morpholinoethyl)-3H-quinazolin-4-one]",,0.107
"O=c1[nH]cnc2ccc(-c3c(-c4ccn(CC(F)F)n4)nc4n3CCC4)cc12 [Compound 49, 6-{3-[1-(2,2-Difluoroethyl)-1H-pyrazol-3-yl]-1,4-diazabicyclo[3.3.0]octa-2,4-dien-2-yl}-3H-quinazolin-4-one]",2.4,0.052
"Cn1cnc2ccc(-c3c(-c4ccn(CC(F)F)n4)nc4n3CCC4)cc2c1=O [Compound 50, 6-{3-[1-(2,2-Difluoroethyl)-1H-pyrazol-3-yl]-1,4-diazabicyclo[3.3.0]octa-2,4-dien-2-yl}-3-methyl-3H-quinazolin-4-one]",0.253,0.09
"CC(C)(O)c1cnc2ccc(-c3c(-c4ccn(C5CC5)n4)nc4n3CCC4)cn12 [Compound 75, 2-(6-(2-(1-Cyclopropyl-1H-pyrazol-3-yl)-6,7-dihydro-5H-pyrrolo[1,2-a]imidazol-3-yl)imidazo[1,2-a]pyridin-3-yl)propan-2-ol]",0.93,0.066
"CS(=O)(=O)c1ccc(-c2cc(-c3c(-c4ccn(C5CC5)n4)nc4n3CCC4)ccn2)cc1 [Compound 86, 2-(1-Cyclopropyl-1H-pyrazol-3-yl)-3-(2-(4-(methylsulfonyl)phenyl)pyridin-4-yl)-6,7-dihydro-5H-pyrrolo[1,2-a]imidazole]",1.4,0.129
"O=C(NC1CCOCC1)c1ccc(-c2cc(-c3c(-c4ccn(C5CC5)n4)nc4n3CCC4)ccn2)cc1 [Compound 88, 4-(4-(2-(1-Cyclopropyl-1H-pyrazol-3-yl)-6,7-dihydro-5H-pyrrolo[1,2-a]imidazol-3-yl)pyridin-2-yl)-N-(tetrahydro-2H-pyran-4-yl)benzamide]",0.988,0.055
"Cn1cnc2ccc(-c3c(-c4ccn(C5CC5)n4)nc4sccn34)cc2c1=O [Compound 89, 6-{7-(1-Cyclopropyl-1H-pyrazol-3-yl)-4-thia-1,6-diazabicyclo[3.3.0]octa-2,5,7-trien-8-yl}-3-methyl-3H-quinazolin-4-one]",0.027,0.0025
"O=c1[nH]cnc2ccc(-c3c(-c4ccn(C5CC5)n4)nc4sccn34)cc12 [Compound 90, 6-{7-(1-Cyclopropyl-1H-pyrazol-3-yl)-4-thia-1,6-diazabicyclo[3.3.0]octa-2,5,7-trien-8-yl}-3H-quinazolin-4-one]",0.0356,0.0025
"CC(C)n1ccc(-c2nc3sccn3c2-c2ccc3ncn(C)c(=O)c3c2)n1 [Compound 91, 6-(6-(1-Isopropyl-1H-pyrazol-3-yl)imidazo [2,1-b]thiazol-5-yl)-3-methylquinazolin-4(3H)-one]",1.1,0.022
"Oc1ncnc2ccc(-c3c(-c4ccn(C5CC5)n4)nc4n3CCC4)cc12 [Compound 92, 6-(2-(1-Cyclopropyl-1H-pyrazol-3-yl)-6,7-dihydro-5H-pyrrolo[1,2-a]imidazol-3-yl)quinazolin-4-ol]",0.057,0.011
"O=C(c1ccc(-c2cc(-c3c(-c4ccn(C5CC5)n4)nc4n3CCC4)ccn2)cc1)N1CCOCC1 [Compound 93, (4-(4-(2-(1-Cyclopropyl-1H-pyrazol-3-yl)-6,7-dihydro-5H-pyrrolo[1,2-a]imidazol-3-yl)pyridin-2-yl)phenyl)(morpholino)methanone]",,0.244
"Cn1cnc2ccc(-c3c(-c4ccn(C5CCC5)n4)nc4n3CCC4)cc2c1=O [Compound 94, 6-(2-(1-Cyclobutyl-1H-pyrazol-3-yl)-6,7-dihydro-5H-pyrrolo[1,2-a]imidazol-3-yl)-3-methylquinazolin-4(3H)-one]",4.08,0.027
"NC(=O)c1ncnc2ccc(-c3c(-c4ccn(C5CC5)n4)nc4n3CCC4)cc12 [Compound 95, 6-(2-(1-Cyclopropyl-1H-pyrazol-3-yl)-6,7-dihydro-5H-pyrrolo[1,2-a]imidazol-3-yl)quinazoline-4-carboxamide]",0.151,0.0089

# Reference: patent publication EP3840748B1, “SUBSTITUTED IMIDAZOLES FOR THE INHIBITION OF TGF-BETA AND METHODS OF TREATMENT” (Clavius Pharmaceuticals, LLC, priority 2018, dated 2020)
